Test results: US4564619A, “Carbostyril derivative” (Otsuka Pharmaceutical Co., Ltd., priority 1982, dated 1986)

How the values were obtained:
[1] = tested on: coronary artery; assay: Increased amount of the blood flow in coronary artery, intravenous administration, anesthetized dog; format: in vivo
Protocol: The change of blood flow in coronary artery and the change of blood pressure were measured by a method according to Yakura et al., [Japan Journal of Pharmacology, Vol. 57, pages 380-391 (1961)] and according to Taira, et al. [Clin. Exp. Pharmacol. Physiol., Vol. 6, pages 301-316, (1976)].
An adult bastard dog of either sex weighing 8-13 kg was anesthetized with sodium pentobarbital at the rate of 30 mg/kg by intraveneous administration, then the dog was fixed in supination and was theracotomized under a condition of forced breathing. After another intraveneous administration of sodium heparin at the rate of 500 U/kg, 100 U/kg per hour, the dog was subjected to the following experiments.
(2) Intraveneous administration
Morawitz's cannula was cannulated to the coronary sinus venosus through the auricula dextra cordis, and the blood in vein was circulated to the right carotid. The blood flow was measured by an electromagnetic blood flow meter equipped with a blood flow observation probe in the extracorporeal circulation path of the vein. The systolic force was measured by a systolometer (pick-up) placed at the left ventricle of heart, the blood pressure was measured from the femoral artery, and the heart rate was measured from the pulse. A compound to be tested was administered through the cannula being cannulated in femoral vein. The increased amount of the blood flow in coronary artery after the administration of the test compound is shown in Table 4, also the change of blood pressure is shown in Table 5.

[2] = tested on: ADP-induced aggregation in rabbit platelets; assay: Inhibition of ADP-induced platelet aggregation in rabbit platelet rich plasma; format: cell-based; settings: Oryctolagus cuniculus, read-out: Inhibition rate of ADP-induced aggregation; for inhibition at 100 µM (stock): Concentration of the test compound solution 10^-4 mole; for inhibition at 10 µM (stock): Concentration of the test compound solution 10^-5 mole
Outline: (§1)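 Citrated rabbit PRP adjusted to 600,000 platelets/μl with PPP, preincubated with test compound 1 min at 37° C, then challenged with ADP (solution prepared at 7.5×10^-5 M) or collagen (solution at 200 μg/ml). Aggregation followed by light transmittance; % inhibition relative to control aggregation rate.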

[3] = Change of blood pressure, intravenous administration, anesthetized dog; format: in vivo; set-up: unit not given here; settings: femoral artery
Outline: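 Pentobarbital-anesthetized (30 mg/kg i.v.), heparinized, thoracotomized dogs of either sex, 8-13 kg, under forced breathing; compound given via femoral vein. Coronary sinus outflow measured by electromagnetic flowmeter in an extracorporeal venous circuit to the carotid; blood pressure recorded from femoral artery.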

[4] = tested on: collagen-induced aggregation in rabbit platelets; assay: Inhibition of collagen-induced platelet aggregation in rabbit platelet rich plasma; format: cell-based; settings: Oryctolagus cuniculus, read-out: Inhibition rate of collagen-induced aggregation; for inhibition at 100 µM (stock): Concentration of the test compound solution 10^-4 mole; for inhibition at 10 µM (stock): Concentration of the test compound solution 10^-5 mole
Outline: as §1

Compound | Increased amount of the blood flow in coronary artery ([1]; 10 micrograms/kg) [mL/min] | Increased amount of the blood flow in coronary artery ([1]; 30 micrograms/kg) [mL/min] | Increased amount of the blood flow in coronary artery ([1]; 100 micrograms/kg) [mL/min] | Increased amount of the blood flow in coronary artery ([1]; 300 micrograms/kg) [mL/min] | inhibition at 100 µM (stock) [2] [%] | inhibition at 10 µM (stock) [2] [%] | Change of blood pressure ([3]; 30 micrograms/kg) | Change of blood pressure ([3]; 100 micrograms/kg) | Change of blood pressure ([3]; 300 micrograms/kg) | inhibition at 100 µM (stock) [4] [%] | inhibition at 10 µM (stock) [4] [%] | Increased amount of the blood flow in coronary artery ([1]; 3 micrograms/kg) [mL/min] | Change of blood pressure ([3]; 3 micrograms/kg) | Change of blood pressure ([3]; 10 micrograms/kg) | Increased amount of the blood flow in coronary artery ([1]; 1000 micrograms/kg) [mL/min]
COC(=O)C1=C(C)NC(C)=C(C(=O)OCCCOc2ccc3[nH]c(=O)ccc3c2)C1c1cccc([N+](=O)[O-])c1 (stereo not shown) [Compound 8, 6-{3-[2,6-Dimethyl-5-methoxycarbonyl-4-(3-nitrophenyl)-1,4-dihydropyridin-3-carboxy]-propoxy}carbostyril] | 1 | 2 | 12 | 56 | 76 | 10 | -3 | -16 | -33 | 99 | 27 | – | – | – | –
COC(=O)C1=C(C)NC(C)=C(C(=O)OCCCOc2cccc3c2NC(=O)CC3)C1c1cccc([N+](=O)[O-])c1 (stereo not shown) [Compound 9, 8-{3-[2,6-Dimethyl-5-methoxycarbonyl-4-(3-nitrophenyl)-1,4-dihydropyridin-3-carboxy]-propoxy}-3,4-dihydrocarbostyril] | 17 | 47 | 66 | 81 | 12 | 7 | -36 | -41 | -36 | 16 | 2 | 4 | -14 | -28 | –
COC(=O)C1=C(C)NC(C)=C(C(=O)OCCOc2ccc3[nH]c(=O)ccc3c2)C1c1cccc([N+](=O)[O-])c1 (stereo not shown) [Compound 10, 6-{2-[2,6-Dimethyl-5-methoxycarbonyl-4-(3-nitrophenyl)-1,4-dihydropyridin-3-carboxy]-ethoxy}carbostyril] | 2 | 5 | 23 | 43 | 100 | 27 | -9 | -13 | -34 | 100 | 50 | – | – | -5 | –
COC(=O)C1=C(C)NC(C)=C(C(=O)OCCN(C(=O)CCCOc2ccc3[nH]c(=O)ccc3c2)C2CCCCC2)C1c1cccc([N+](=O)[O-])c1 (stereo not shown) [Compound 31, N--{2-[1,4-Dihydro-2,6-dimethyl-5-methoxycarbonyl-4-(3-nitrophenyl)pyridin-3-carboxy]ethyl}-N--cyclohexyl-4-(6-carbostyriloxy)butyramide] | – | – | 6 | 32 | 100 | 84 | -4 | -8 | -23 | 100 | 100 | – | – | -1 | 61
COC(=O)C1=C(C)NC(C)=C(C(=O)OCCN(C(=O)CCCOc2ccc3c(c2)CCC(=O)N3)C2CCCCC2)C1c1ccccc1[N+](=O)[O-] (stereo not shown) [Compound 32, N--{2-[1,4-Dihydro-2,6-dimethyl-5-methoxycarbonyl-4-(2-nitrophenyl)pyridin-3-carboxy]ethyl}-N--cyclohexyl-4-(3,4-dihydro-6-carbostyriloxy)-butyramide] | – | – | 16 | 55 | 98 | 25 | -6 | -8 | -19 | 100 | 34 | – | – | -1 | 97
COC(=O)C1=C(C)NC(C)=C(C(=O)OCCN(C(=O)CCCOc2ccc3[nH]c(=O)ccc3c2)C2CCCCC2)C1c1ccccc1 (stereo not shown) [Compound 35, N--[2-(1,4-Dihydro-2,6-dimethyl-5-methoxycarbonyl-4-phenylpyridin-3-carboxy)ethyl]-N--cyclohexyl-4-(6-carbostyriloxy)butyramide] | – | – | 5 | 17 | 100 | 89 | -6 | -9 | -26 | 100 | 100 | – | – | -4 | 47
